In BigSolDB 2.1:

Oc1ccc(Cl)c2cccnc12
solubility (mole fraction)
Conditions | 278.15 K | 283.15 K | 288.15 K | 293.15 K | 298.15 K | 303.15 K | 308.15 K | 313.15 K | 318.15 K | 323.15 K
in 1,4-dioxane | – | – | 0.0556 | 0.064 | 0.0751 | 0.0875 | 0.102 | 0.119 | 0.14 | 0.161
in 2-ethoxyethanol | 0.0161 | 0.0194 | 0.0249 | 0.0284 | 0.0333 | 0.0398 | 0.0466 | 0.055 | 0.0646 | 0.0768
in ethanol | 0.00253 | 0.00304 | 0.00376 | 0.00468 | 0.00564 | 0.00694 | 0.00839 | 0.0101 | 0.0121 | 0.0145
in n-propyl acetate | 0.015 | 0.0178 | 0.0213 | 0.0251 | 0.0297 | 0.0355 | 0.0416 | 0.0495 | 0.0587 | 0.0696
